The values that follow come from patent US11690810B2, “Combination treatment of bacterial infection” (The Chinese University of Hong Kong, priority 2018, dated 2023).

In test [1] the test system is bacterial aggregation of MRSA JE-2. Description: Aggregation assay of MRSA JE-2. As to conditions: JE-2; varying concentrations. Type of test: cell-based, Staphylococcus aureus.
The test system of test [2] is S. aureus SA-APH3′ (APH3), resistant to kanamycin. Description: MIC and checkerboard (FIC) assay.

Structures are written as SMILES. Bounds are passed on as bounds.

Consider `O=C(O[C@@H]1Cc2c(O)cc(O)cc2O[C@@H]1c1ccc(O)c(O)c1)c1cc(O)c(O)c(O)c1` [ECG, epicatechin gallate], for which the bacterial aggregation result in test [1] is “No significant reduction”. Moreover, in test [2] (APH3, Kuraridin with ECG), the FIC came to 0.0009 and the MIC combine was determined as 0.5 µg/mL. Also, in test [2] (Staphylococcus aureus), the MIC90 amounted to 4 µg/mL. Besides, the MIC99 in test [2] (Staphylococcus aureus, read-out: MIC 99.9) is > 512 µg/mL. In addition, the MIC in test [2] (Staphylococcus aureus, read-out: MIC alone) was determined as 512 µg/mL.
